Results published in article PMC4988499, “Pinpointing a Mechanistic Switch Between Ketoreduction and “Ene” Reduction in Short‐Chain Dehydrogenases/Reductases” (Angewandte Chemie (Weinheim an Der Bergstrasse, Germany), 2016).

Legend:
[1] = target: T1, IPR (isopiperitenone reductase) (Mentha x piperita, UniProt Q6WAU1); assay: X-ray crystal structure; assay type: binding
T1 construct: recombinant; NADP+ scavenged from host cells; catalytic Glu238

[2] = target: T2, MNMR ((−)‐menthone:(+)‐neomenthol reductase) (Mentha x piperita, UniProt Q06ZW2); assay: X-ray crystal structure (soaking); assay type: binding; conditions: coenzyme site
T2 construct: recombinant; catalytic Tyr244
T2 sequence (Q06ZW2 entry or part of it): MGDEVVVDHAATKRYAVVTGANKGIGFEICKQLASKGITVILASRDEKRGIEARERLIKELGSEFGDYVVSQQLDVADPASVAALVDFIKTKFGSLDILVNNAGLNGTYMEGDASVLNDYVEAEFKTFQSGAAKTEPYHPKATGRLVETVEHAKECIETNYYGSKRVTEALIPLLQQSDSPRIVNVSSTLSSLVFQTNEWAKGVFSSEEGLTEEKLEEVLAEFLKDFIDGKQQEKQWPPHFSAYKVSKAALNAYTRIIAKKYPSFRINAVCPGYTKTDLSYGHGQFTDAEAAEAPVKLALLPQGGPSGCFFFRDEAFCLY

T1 sequence (Q6WAU1 whole entry): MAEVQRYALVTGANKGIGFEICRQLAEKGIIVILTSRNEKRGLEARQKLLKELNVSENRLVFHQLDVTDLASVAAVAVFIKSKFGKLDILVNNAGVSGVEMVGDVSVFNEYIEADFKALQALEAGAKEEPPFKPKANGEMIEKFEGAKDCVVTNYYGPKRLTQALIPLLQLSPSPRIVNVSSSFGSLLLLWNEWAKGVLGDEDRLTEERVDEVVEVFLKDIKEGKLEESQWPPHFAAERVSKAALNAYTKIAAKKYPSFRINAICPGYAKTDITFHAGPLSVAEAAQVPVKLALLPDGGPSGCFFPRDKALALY

| Compound | X-ray crystal structure ([1]; scavenged from expression host) | X-ray crystal structure (soaking) [2] | X-ray crystal structure ([1]; active site, non-substrate, with NADP+) |
| --- | --- | --- | --- |
| NC(=O)c1ccc[n+]([C@@H]2O[C@H](COP(=O)(O)OP(=O)(O)OC[C@H]3O[C@@H](n4cnc5c(N)ncnc54)[C@H](OP(=O)(O)O)[C@@H]3O)[C@@H](O)[C@H]2O)c1 [NADP^+] | clear density in the F0−Fc map for NADP^+ | A coenzyme‐bound MNMR structure was obtained by soaking crystals with NADP^+ | – |
| CC1=C(C=O)C(C)(C)CCC1 [β‐cyclocitral] | – | – | The IPR–β‐cyclocitral co‐crystal structure shows the ligand binds in a non‐active conformation |
